Data from ChEMBL document CHEMBL1201862, “PubChem BioAssay data set” (2004).
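All cell lines were grown in 96-well plates and treated with compound for 48 hours. GI50 = concentration required for 50% inhibition of growth.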 Calls of active or inactive are those of the source. No stated cut-off is given here; in the data, active = GI50 up to about 1.1 µM and inactive = higher.

Assays:
Assay in all cases: growth of human tumour cells (NCI), 48 h
[1] = tested on: M14
[2] = tested on: U-251
[3] = tested on: 786-0
[4] = tested on: HT-29
[5] = tested on: LOX IMVI
[6] = tested on: HCT-15
[7] = tested on: SR
[8] = tested on: RPMI-8226
[9] = tested on: DU-145
[10] = tested on: OVCAR-4
[11] = tested on: SN12C
[12] = tested on: MDA-MB-231
[13] = tested on: CAKI-1
[14] = tested on: MDA-MB-435
[15] = tested on: SK-MEL-2
[16] = tested on: SNB-75
[17] = tested on: SK-OV-3
[18] = tested on: OVCAR-8
[19] = tested on: TK-10
[20] = tested on: MCF7
[21] = tested on: SF-268
[22] = tested on: SK-MEL-5
[23] = tested on: HOP-62
[24] = tested on: KM12
[25] = tested on: HCT-116
[26] = tested on: HL-60
[27] = tested on: HOP-92
[28] = tested on: SNB-19
[29] = tested on: EKVX
[30] = tested on: PC-3
[31] = tested on: OVCAR-5
[32] = tested on: K562
[33] = tested on: CCRF-CEM
[34] = tested on: ACHN
[35] = tested on: UACC-62
[36] = tested on: A549
[37] = tested on: MDA-N
[38] = tested on: SW-620
[39] = tested on: MOLT-4
[40] = tested on: UACC-257
[41] = tested on: IGROV-1
[42] = tested on: A498
[43] = tested on: SK-MEL-28
[44] = tested on: Hs-578T
[45] = tested on: T47D
[46] = tested on: NCI-H23
[47] = tested on: UO-31
[48] = tested on: SF-539
[49] = tested on: NCI-H226
[50] = tested on: COLO 205
[51] = tested on: Malme-3M
[52] = tested on: NCI/ADR-RES
[53] = tested on: RXF 393
[54] = tested on: NCI-H522
[55] = tested on: SF-295
[56] = tested on: HCC 2998

SMILES: N#Cc1nc(C2SCCCS2)oc1N
- GI50 [1]: > 100 µM (inactive)
- GI50 [2]: > 100 µM (inactive)
- GI50 [3]: > 100 µM (inactive)
- GI50 [4]: > 100 µM (inactive)
- GI50 [5]: > 100 µM (inactive)
- GI50 [6]: > 100 µM
- GI50 [7]: > 100 µM (inactive)
- GI50 [8]: 95.7 µM (inactive)
- GI50 [9]: > 100 µM (inactive)
- GI50 [10]: > 100 µM (inactive)
- GI50 [11]: > 100 µM (inactive)
- GI50 [12]: > 100 µM (inactive)
- GI50 [13]: > 100 µM (inactive)
- GI50 [14]: > 100 µM (inactive)
- GI50 [15]: > 100 µM (inactive)
- GI50 [16]: < 0.01 µM (active)
- GI50 [17]: > 100 µM (inactive)
- GI50 [18]: > 100 µM (inactive)
- GI50 [19]: > 100 µM (inactive)
- GI50 [20]: > 100 µM (inactive)
- GI50 [21]: > 100 µM (inactive)
- GI50 [22]: > 100 µM (inactive)
- GI50 [23]: > 100 µM (inactive)
- GI50 [24]: > 100 µM (inactive)
- GI50 [25]: > 100 µM (inactive)
- GI50 [26]: > 100 µM (inactive)
- GI50 [27]: > 100 µM (inactive)
- GI50 [28]: > 100 µM (inactive)
- GI50 [29]: > 100 µM (inactive)
- GI50 [30]: > 100 µM (inactive)
- GI50 [31]: > 100 µM (inactive)
- GI50 [32]: > 100 µM (inactive)
- GI50 [33]: 64.3 µM (inactive)
- GI50 [34]: > 100 µM (inactive)
- GI50 [35]: > 100 µM (inactive)
- GI50 [36]: > 100 µM (inactive)
- GI50 [37]: > 100 µM (inactive)
- GI50 [38]: > 100 µM (inactive)
- GI50 [39]: > 100 µM (inactive)
- GI50 [40]: > 100 µM (inactive)
- GI50 [41]: > 100 µM (inactive)
- GI50 [42]: > 100 µM (inactive)
- GI50 [43]: > 100 µM (inactive)
- GI50 [44]: 43 µM (inactive)

SMILES: CC(=O)CC1(C)OC(N)=C(C#N)C1(C#N)C#N (stereo not given)
- GI50 [1]: > 100 µM (inactive)
- GI50 [2]: > 100 µM (inactive)
- GI50 [3]: > 100 µM (inactive)
- GI50 [4]: 88.9 µM (inactive)
- GI50 [5]: 81.1 µM (inactive)
- GI50 [45]: > 100 µM (inactive)
- GI50 [6]: 43.9 µM
- GI50 [8]: > 100 µM (inactive)
- GI50 [9]: > 100 µM (inactive)
- GI50 [46]: > 100 µM (inactive)
- GI50 [47]: > 100 µM (inactive)
- GI50 [11]: > 100 µM (inactive)
- GI50 [12]: > 100 µM (inactive)
- GI50 [13]: 59.4 µM (inactive)
- GI50 [14]: > 100 µM (inactive)
- GI50 [15]: > 100 µM (inactive)
- GI50 [48]: 86.1 µM (inactive)
- GI50 [16]: 47 µM (inactive)
- GI50 [17]: > 100 µM (inactive)
- GI50 [49]: > 100 µM (inactive)
- GI50 [18]: > 100 µM (inactive)
- GI50 [19]: > 100 µM (inactive)
- GI50 [20]: > 100 µM (inactive)
- GI50 [50]: 45.9 µM (inactive)
- GI50 [21]: > 100 µM (inactive)
- GI50 [22]: 42.1 µM (inactive)
- GI50 [23]: 55.1 µM (inactive)
- GI50 [24]: > 100 µM (inactive)
- GI50 [25]: 71.6 µM (inactive)
- GI50 [51]: 80 µM (inactive)
- GI50 [27]: 74.6 µM (inactive)
- GI50 [52]: > 100 µM (inactive)
- GI50 [53]: > 100 µM (inactive)
- GI50 [28]: > 100 µM (inactive)
- GI50 [29]: > 100 µM (inactive)
- GI50 [30]: > 100 µM (inactive)
- GI50 [31]: > 100 µM (inactive)
- GI50 [33]: 44.7 µM (inactive)
- GI50 [34]: > 100 µM (inactive)
- GI50 [35]: > 100 µM (inactive)
- GI50 [36]: > 100 µM (inactive)
- GI50 [37]: > 100 µM (inactive)
- GI50 [38]: > 100 µM (inactive)
- GI50 [54]: 48.9 µM (inactive)
- GI50 [40]: > 100 µM (inactive)
- GI50 [41]: > 100 µM (inactive)
- GI50 [42]: > 100 µM (inactive)
- GI50 [43]: > 100 µM (inactive)
- GI50 [44]: > 100 µM (inactive)
- GI50 [55]: > 100 µM (inactive)
- GI50 [56]: > 100 µM (inactive)
